The source of these data is paper PMC6177011, “Idebenone and coenzyme Q10 are novel PPARα/γ ligands, with potential for treatment of fatty liver diseases” (Disease Models & Mechanisms, 2018).

What all share (type): cell-based
The target of experiment [1] is T1, hPPARδ/β (Homo sapiens, UniProt Q03181).
T1 construct: gene PPARD; GAL4-hPPARδ LBD fusion
T1 sequence (Q03181 171-441 limits assumed): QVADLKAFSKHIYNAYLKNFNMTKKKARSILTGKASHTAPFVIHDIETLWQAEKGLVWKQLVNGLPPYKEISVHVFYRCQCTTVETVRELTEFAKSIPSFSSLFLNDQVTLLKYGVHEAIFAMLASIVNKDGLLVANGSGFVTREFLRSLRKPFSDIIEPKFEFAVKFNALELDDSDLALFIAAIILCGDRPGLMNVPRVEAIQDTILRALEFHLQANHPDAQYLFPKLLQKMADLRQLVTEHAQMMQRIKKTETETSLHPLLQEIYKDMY
Briefly: GAL4-LBD UAS-luciferase reporter in HEK293. Background: A reporter such as luciferase makes a cellular process visible.

In experiment [2] the target is T2, PPARγ (Homo sapiens, UniProt P37231).
T2 construct: gene PPARG; PPARγ (aa 189-477) LBD fusion
T2 sequence (P37231 217-505): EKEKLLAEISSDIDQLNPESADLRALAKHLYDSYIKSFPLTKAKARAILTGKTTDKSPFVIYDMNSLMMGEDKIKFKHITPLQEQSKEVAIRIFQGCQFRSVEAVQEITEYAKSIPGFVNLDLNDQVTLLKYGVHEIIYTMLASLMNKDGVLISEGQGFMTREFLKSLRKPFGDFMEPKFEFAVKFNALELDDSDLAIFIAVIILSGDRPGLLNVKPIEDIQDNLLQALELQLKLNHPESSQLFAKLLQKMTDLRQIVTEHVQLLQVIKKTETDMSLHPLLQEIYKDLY
As to the kind of experiment: antagonism of the human PPARγ LBD ligand-trap GFP reporter in transgenic zebrafish.

Experiment [3] deals with T3, PPARα (Homo sapiens, UniProt Q07869).
T3 construct: gene PPARA; His-tagged PPARα LBD
T3 sequence (Q07869 196-468 limits assumed): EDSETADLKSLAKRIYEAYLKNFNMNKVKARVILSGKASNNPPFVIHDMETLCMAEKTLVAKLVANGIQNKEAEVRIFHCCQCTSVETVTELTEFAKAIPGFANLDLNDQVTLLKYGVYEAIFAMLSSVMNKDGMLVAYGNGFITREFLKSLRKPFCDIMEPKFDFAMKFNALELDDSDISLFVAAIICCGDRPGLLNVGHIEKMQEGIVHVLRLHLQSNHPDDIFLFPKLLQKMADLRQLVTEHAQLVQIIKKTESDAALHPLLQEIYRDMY
As to the kind of experiment: co-purification with purified LBD and LC-MS; EC50 from GAL4-LBD luciferase reporter in HEK293.

As a reminder, the EC50 is the concentration that produces a half-maximal response.

Molecules are shown by their SMILES.

In experiment [1], `O=C(O)COc1ccc(SCC=C(c2ccc(Br)cc2)c2ccc(Br)cc2)cc1Cl` [CAY10592] displayed an EC50 of 0.0128 µM.

On to `O=C(Nc1ccccc1)c1cc([N+](=O)[O-])ccc1Cl` [GW9662], for which the “antagonism of the human PPARγ LBD ligand-trap GFP reporter in transgenic zebrafi” value in experiment [2] was “The GW9662 suicide antagonist blocks agonist activity of rosiglitazone and idebenone, but not of RA”.

Consider `COC1=C(OC)C(=O)C(CCCCCCCCCCO)=C(C)C1=O` [idebenone], for which, in experiment [3], the EC50 stood at 2.5 µM.
